Measured values as given in patent publication US20220313782A1, “METHODS AND COMPOSITIONS INVOLVING TERT ACTIVATING THERAPIES” (BOARD OF REGENTS, THE UNIVERSITY OF TEXAS SYSTEM, priority 2019, published 2022).

How the values were obtained:
[1] = tested on: H3K9 methylation marks; conditions: peripheral administration; cited from earlier work
[2] = tested on: Tert gene expression; assay: Tert mRNA levels in cortex and hippocampus of AD mice treated with histone methyltransferase inhibitors; format: in vivo, mouse; conditions: cortex and hippocampus of AD mice (5xFAD), FIG. 1I
Source text: Tert mRNA levels in the cortex of 3xTg-AD and wildtype control (B6129SF2/J) mice (n=4; 3-month-old). (B) Tert mRNA levels in the hippocampus of 5xFAD and wildtype littermate control mice (n=4; 2˜3-month-old). (C) Tert mRNA levels in primary cortical and hippocampal neurons isolated from 3xTg-AD and control mice at DIV 14 (n=3). (D) Tert mRNA levels in primary cortical and hippocampal neurons isolated from 5xFAD and control mice at DIV 14 (n=3). (E) Telomerase activity in hippocampal neurons isolated from 5xFAD and control mice (n=4; 2˜3-month-old). (F) Representative view of H3K9me3 repressive histone mark occupancy in Tert gene of 5xFAD and control mouse primary neurons at DIV 14. […]
Focusing in particular on the neuronal population, the inventors isolated and cultured primary cortical and hippocampal neurons from E18.5-E19.5 AD mouse brains, and Tert mRNA levels were examined at 14 Days in vitro (DIV), by which time the synaptic network is mature. […] To investigate whether reversible H3K9 methylation is involved in the repression of Tert, the inventors assessed the impact of histone methyltransferase inhibitors chaetocin and BIX-01294, the non-selective cofactor-competitive inhibitor and the selective substrate-competitive inhibitor, respectively, in the AD mouse model (Greiner et al., Nat Chem Biol, 2005; Kubicek et al., Mol Cell, 2007; Yuan et al., ACS Chem Biol, 2012). […]

## COc1cc2nc(N3CCCN(C)CC3)nc(NC3CCN(Cc4ccccc4)CC3)c2cc1OC [BIX-01294]
[1]
  H3K9 methylation marks in the central nervous system: reduce H3K9 methylation marks
[2]
  Tert gene expression (Tert mRNA levels): de-repression of Tert gene expression
